Source: publication PMC8583417, “Evaluation of the Antimicrobial Efficacy of N-Acetyl-L-Cysteine, Rhamnolipids, and Usnic Acid—Novel Approaches to Fight Food-Borne Pathogens” (International Journal of Molecular Sciences, 2021)
Values after ≈ are worked out from the molar mass of the structure shown.

Experiments:
S. aureus 1241 [1] = experiment: MIC for metabolic activity of preformed biofilm (MTT reduction assay); type: cell-based, Staphylococcus aureus; settings: ≥80% inhibition, 20 h with substance
Description: (§1) Ten concentrations of NAC, RLs, and UA were tested to determine the minimum inhibitory concentration for planktonic growth, and subsequently, the six highest concentrations were applied on preformed biofilms to evaluate the biofilm eradication ability of the compounds. MIC was defined as the lowest substance concentration able to inhibit at least 80% of microbial growth (MICPC80 for planktonic cells, MICBC80 for further growth of biofilm cells), inhibit 80% of metabolic activity (MICBM80 for biofilm metabolic activity, MICMPB80 for metabolic activity of preformed biofilm), prevent biofilm formation by at least 80% (MICBF80 for biofilm formation), or reduce a preformed biofilm by at least 80% (MICBR80 for biofilm reduction). The results of MICs are summarized in Table 1 (planktonic cells) and Table 2 (biofilm-associated cells).
(§2) The determination of MICs was performed according to Chlumsky et al.. Briefly, 96-well flat-bottomed microtiter plates were inoculated with 75 µL (for biofilm formation) or 100 µL (for preformed biofilm) of bacterial suspension (A625nm 0.08 to 0.1) in technical triplicates and were then carefully mixed with the dilution series of the test substances (24 h cultivation at 25 °C for S. Infantis, 37 °C for other strains) or were directly cultivated to preform biofilms (18 h). For a positive control of bacterial growth, the inoculum was mixed with a pure sterile medium. Furthermore, the sterile medium was included in the plate as a marker of potential microbial contamination. To evaluate planktonic cells growth (MICPC80) and further growth of biofilm cells (MICBC80), the optical density of the content of the microtiter plates was measured spectrophotometrically at 625 nm before and after 24 h (for biofilm formation) of cultivation or before and after additional 20 h incubation with the tested compound (for preformed biofilm). The difference of A625nm was considered as a measure of the ability of cells to grow in the presence of the tested substances. To evaluate the inhibition of biofilm formation (MICBF80) and reduction in preformed biofilms (MICBR80), biomass was quantified using crystal violet staining, and its metabolic activity (MICBM80 and MICMPB80) was estimated by using the MTT (thiazyl tetrazolium bromide, Sigma-Aldrich, USA) reduction assay, both measured spectrophotometrically at 595 nm.
(§3) All inhibitions were calculated using the formula of Chlumsky et al. below (Equation (1)):(1) A625(595)nm inhibition (%)=A625(595)nm (control) – A625(595)nm(natural substance)/A625(595)nm (control)× 100 where A625(595)nm (control) is the absorbance of bacterial suspension/biofilm itself, and A625(595)nm(natural substance) is the absorbance of the bacterial suspension/biofilm with the added natural substance (NAC, RLs, and UA).
(§4) When the minimum inhibitory concentration could not be determined, the MIC was established as >the highest tested concentration for NAC, RLs, and UA.

[2] = tested on: S. Enteritidis ATCC 13076; experiment: MIC for reduction of preformed biofilm (crystal violet staining); type: cell-based, Salmonella enterica Enteritidis; settings: for MICBR80: ≥80% reduction of preformed biofilm (18 h), 20 h with substance
Description: as §1
The determination of MICs was performed according to Chlumsky et al.. […] To evaluate planktonic cells growth (MICPC80) and further growth of biofilm cells (MICBC80), the optical density of the content of the microtiter plates was measured spectrophotometrically at 625 nm before and after 24 h (for biofilm formation) of cultivation or before and after additional 20 h incubation with the tested compound (for preformed biofilm). […] To evaluate the inhibition of biofilm formation (MICBF80) and reduction in preformed biofilms (MICBR80), biomass was quantified using crystal violet staining, and its metabolic activity (MICBM80 and MICMPB80) was estimated by using the MTT (thiazyl tetrazolium bromide, Sigma-Aldrich, USA) reduction assay, both measured spectrophotometrically at 595 nm.
as §3, with “UA). […]” for “UA).”

S. Infantis S59 = experiment: MIC for biofilm formation (crystal violet staining); type: cell-based, Salmonella enterica Infantis; settings: for MICBF80: ≥80% prevention, 24 h
Description: as §1, §2, §3, §4

S. Infantis S13 = experiment: as above; type: cell-based, Salmonella enterica Infantis; settings: for MICBF80: ≥80% prevention, 24 h
Description: as §1, §2, §3, §4

L. monocytogenes 164 [3] = experiment: MIC for further growth of biofilm cells, preformed biofilm (A625nm); type: cell-based, Listeria monocytogenes; settings: ≥80% inhibition, 18 h preformed biofilm, 20 h with substance
Description: as §1
as §2, with “Furthermore, the sterile medium was included in the plate as a marker of potential microbial contamination.” left out, “The difference of A625nm was considered as a measure of the ability of cells to grow in the presence of the tested substances.” left out
as §3, §4

L. monocytogenes 149 [4] = experiment: as above; type: cell-based, Listeria monocytogenes; settings: ≥80% inhibition, 18 h preformed biofilm, 20 h with substance
Description: as §1
as §2, with “Furthermore, the sterile medium was included in the plate as a marker of potential microbial contamination.” left out, “The difference of A625nm was considered as a measure of the ability of cells to grow in the presence of the tested substances.” left out
as §3, §4

E. coli 683/17 = experiment: as above; type: cell-based, Escherichia coli; settings: for MICBC80: ≥80% inhibition, 18 h preformed biofilm, 20 h with substance
Description: as §1, §2, §3, §4

E. coli 693/17 = experiment: as above; type: cell-based, Escherichia coli; settings: for MICBC80: ≥80% inhibition, 18 h preformed biofilm, 20 h with substance
Description: as §1, §2, §3, §4

L. monocytogenes 164 [5] = experiment: MIC for planktonic cell growth (A625nm); type: cell-based, Listeria monocytogenes; settings: ≥80% inhibition, 24 h
Description: as §1
as §2, with “Furthermore, the sterile medium was included in the plate as a marker of potential microbial contamination.” left out, “The difference of A625nm was considered as a measure of the ability of cells to grow in the presence of the tested substances.” left out
as §3, §4

L. monocytogenes 149 [6] = experiment: MIC for planktonic cell growth (A625nm); type: cell-based, Listeria monocytogenes; settings: ≥80% inhibition, 24 h
Description: as §1
as §2, with “Furthermore, the sterile medium was included in the plate as a marker of potential microbial contamination.” left out, “The difference of A625nm was considered as a measure of the ability of cells to grow in the presence of the tested substances.” left out
as §3, §4

S. aureus 1241 [7] = experiment: MIC for biofilm metabolic activity (MTT reduction assay); type: cell-based, Staphylococcus aureus; settings: ≥80% inhibition, 24 h
Description: as §1
as §2, with “Furthermore, the sterile medium was included in the plate as a marker of potential microbial contamination.” left out, “The difference of A625nm was considered as a measure of the ability of cells to grow in the presence of the tested substances.” left out
as §3, §4

L. monocytogenes 164 [8] = experiment: as above; type: cell-based, Listeria monocytogenes; settings: ≥80% inhibition, 24 h
Description: as §1
as §2, with “Furthermore, the sterile medium was included in the plate as a marker of potential microbial contamination.” left out, “The difference of A625nm was considered as a measure of the ability of cells to grow in the presence of the tested substances.” left out
as §3, §4

L. monocytogenes 149 [9] = experiment: as above; type: cell-based, Listeria monocytogenes; settings: ≥80% inhibition, 24 h
Description: as §1
as §2, with “Furthermore, the sterile medium was included in the plate as a marker of potential microbial contamination.” left out, “The difference of A625nm was considered as a measure of the ability of cells to grow in the presence of the tested substances.” left out
as §3, §4

S. aureus 1241 [10] = experiment: MIC for biofilm formation (crystal violet staining); type: cell-based, Staphylococcus aureus; settings: ≥80% prevention, 24 h
Description: as §1
as §2, with “Furthermore, the sterile medium was included in the plate as a marker of potential microbial contamination.” left out, “The difference of A625nm was considered as a measure of the ability of cells to grow in the presence of the tested substances.” left out
as §3, §4

S. aureus 816 = experiment: as above; type: cell-based, Staphylococcus aureus; settings: ≥80% prevention, 24 h
Description: as §1
as §2, with “Furthermore, the sterile medium was included in the plate as a marker of potential microbial contamination.” left out, “The difference of A625nm was considered as a measure of the ability of cells to grow in the presence of the tested substances.” left out
as §3, §4

[11] = tested on: cell lines HRTEC, HaCat, HDF, HEK 293, HCAEC; experiment: Acute cytotoxicity, resazurin assay, summary over cell lines; type: cell-based, human; settings: 72 h
Source text: To test the acute cytotoxicity of the compounds, the following cell lines were used: primary human renal tubular epithelial cells (HRTEC; Evercyte, Vienna, Austria); human keratinocytes (HaCat; Thermo Fisher Scientific, Waltham, MA, USA); human dermal fibroblasts (HDF; Merck, Kenilworth, NJ, USA); human epithelial kidney cells (HEK 293; ATCC, Manassas, VI, USA); primary human coronary artery endothelial cells (HCAEC; ATCC, Manassas, VI, USA). The cell lines were maintained in a proper cultivation medium—HaCat, HDF, and Hek 293 in DMEM; HRTEC in VCB; HCAEC in ProxUp. The cytotoxicity experiment was realized according to Tran et al.. Briefly, the cells were counted by the Cellometer Auto T4 (Nexcelom Bioscience, Lawrence, MA, USA), and the cell suspension containing a cell density of 10^5 cells/mL was split into the 96-well plate, with 100 µL per well. The plates were then incubated for 24 h at 37 °C in a humidified atmosphere of 5% CO2. Then, the plates were washed three times with PBS, and the tested natural compounds were added using binary dilution in a proper medium. After 72 h of incubation, the cell viability was tested by resazurin assay. The fluorescence was measured by a SpectraMax i3× microplate reader (San Jose, CA, USA) at a wavelength of 560 nm excitation/590 nm emission.
The cytotoxicity results are expressed as the average IC50 ± standard error of the mean (SEM). […]

Structure (SMILES) | MICMPB80 (S. aureus 1241 [1]) [µg/mL] | MICBR80 [2] | MICBF80 (S. Infantis S59) [µg/mL] | MICBF80 (S. Infantis S13) | MICBC80 (L. monocytogenes 164 [3]) [µg/mL] | MICBC80 (L. monocytogenes 149 [4]) [µg/mL] | MICBC80 (E. coli 683/17) [µg/mL] | MICBC80 (E. coli 693/17) [µg/mL] | MICPC80 (L. monocytogenes 164 [5]) [µg/mL] | MICPC80 (L. monocytogenes 149 [6]) [µg/mL] | MICBM80 (S. aureus 1241 [7]) [µg/mL] | MICBM80 (L. monocytogenes 164 [8]) [µg/mL] | MICBM80 (L. monocytogenes 149 [9]) | MICBF80 (S. aureus 1241 [10]) | MICBF80 (S. aureus 816) [µg/mL] | further results
CC(=O)c1c(O)c(C)c(O)c2c1OC1=CC(=O)C(C(C)=O)C(=O)C12C (single isomer, unassigned; (+)) [UA, (+)-usnic acid] | 3.91 | > 31.3 µg/mL | > 31.3 | > 31.3 µg/mL | 1.96 | 1.96 | > 31.3 | > 31.3 | 1.96 | 0.98 | 0.49 | 1.96 | 1.96 µg/mL | 0.24 µg/mL | 0.24 | maximal achieved inhibition (MICBR80 not reached), biofilm reduction ([2]; preformed biofilm, within tested concentrations): 0%; maximal achieved inhibition (MICBF80 not reached) (S. Infantis S59; within tested concentrations): 34%; maximal achieved inhibition (MICBF80 not reached) (S. Infantis S13; within tested concentrations): 45%; maximal achieved inhibition (MICBC80 not reached) (E. coli 683/17; within tested concentrations): 44%; maximal achieved inhibition (MICBC80 not reached) (E. coli 693/17; within tested concentrations): 61%; IC50, range over cell lines [11]: 0.03 to 4.35 µg/mL
CC(=O)N[C@@H](CS)C(=O)O [NAC, N-Acetyl-L-cysteine] | 6250 | 12,500 µg/mL | 6250 | 12,500 µg/mL | 3130 | 3130 | 6250 | 3130 | 6250 | 3130 | 6250 | 6250 | 12,500 µg/mL | 12,500 µg/mL | 3130 | IC50 ([11]; Homo sapiens, read-out: IC50, range over cell lines): 460 to 4020 µg/mL (≈ 2820 to 24600 µM)
